“And” between values parts separate entries of the source, which are not always exact repeats. Identical values can stand only once.
System: LG0567-F671-PDC multi-cell spheroid viability
Assay: Anticancer human tumor LG0567-F671-PDC patient-derived lung adenocarcinoma cell line growth inhibition [IpAb]
Conditions: for viability, T/C: stronger effect = lower value; active = viability on the fitted dose curve at most 10% of control; inactive = the rest
From the text: Combinatorial screen of targeted agents with ipatasertib and abemaciclib in multi-cell type tumor spheroids
A high-throughput screen of multi-cell type tumor spheroids was designed to identify active combinations of targeted small molecules and ipatasertib or abemaciclib. Complex spheroids include a stromal component modeled by human endothelial cells (HUVEC) and fibroblasts modeled by human mesenchymal stem cells (MSCs). The concentration ranges selected for each drug and investigational agent were based upon clinically achievable concentrations if the clinical Cmax of the agent was known.
Compounds. The drugs and investigational agents: ipatasertib (NSC767898), abemaciclib(NSC768073), selumetinib (NSC741078), trametinib (758246), adavosertib (NSC754352), everolimus (NSC733504), sapanisertib (NSC764658), vemurafenib (NSC761431), venetoclax (NSC766270), copanlisib (NSC809693), apelisib (NSC765974), palbociblib (NSC758247), vemurafenib (NSC761431), dabrafenib (NSC764134), ravoxertinib (NSC781343), BMS-387032 (NSC767048), sotorasib (NSC818433), talazoparib (NSC767125) and afursertib (NSC778305), were obtained from the National Cancer Institute (NCI) Developmental Therapeutics Program Chemical Repository. The FDA-approved anticancer drug set is available from the NCI Developmental Therapeutics Program. […] The stock solutions were prepared in dimethyl sulfoxide (DMSO, Sigma-Aldrich, St. Louis, MO, cat. D2650) at 800-fold the tested concentration and stored at -70 degrees C prior to their use. All drugs and investigational agents were tested over a range starting from a high concentration at or near the clinical Cmax and decreasing in half-log increments. If the clinical Cmax for an agent had not been determined, the highest concentration tested was 10 microM.
NCI60 Cell Culture. NCI60 cell lines were obtained from the NCI Developmental Therapeutics Program Tumor Repository. For each lot of cells, the Repository performed Applied Biosystems AmpFLSTR Identifiler testing with PCR amplification to confirm consistency with the published Identifier STR profile for each cell line. Cells were kept in continuous culture for no more than 20 passages. The optimal seeding densities for each of the cell lines at each time point assessed were determined prior to performing the concentration response studies. Briefly, the NCI60 human tumor lines were grown as monolayers in RPMI 1640 medium supplemented with 10% FBS and 2 mmol/L L-glutamine.
An additional 9 lines were from the NCI60 cell line panel including MDA-MB-231 breast carcinoma, MDA-MB-468 breast carcinoma, MCF7 breast carcinoma, Hs578T breast carcinoma, MALME-3M melanoma, SK-MEL-2 melanoma, SK-OV-3 ovarian carcinoma, DU-145 prostate carcinoma, PC-3 prostate carcinoma, all cell lines along with major genetic alterations are listed on Table 2. Pooled donor human umbilical vein endothelial cells (HUVEC, Lonza, cat. CC-2519) and human mesenchymal stem cells (hMSC, Lonza, cat. PT-2501) were purchased from Lonza (Walkersville, MD).
PDMR cell lines were grown in complete medium (DC medium): Dulbecco's modified Eagle's medium (DMEM)/F12 supplemented with 5% fetal bovine serum (FBS), 2 mM L-glutamine, 100 U/mL penicillin and 100 µg/ml streptomycin, 0.4 µg/ml hydrocortisone, 10 ng/ml epidermal growth factor (EGF) recombinant human protein, 24 µg/mL adenine, and 0.1 mg/mL primocin. During culture from frozen stock vials, PDMR cells were cultured in the same medium containing 10 µM Y-27632 (see Table 3). The PDCs were cultured in complete DMEM/F12 media without 10 microM Y-27632 dihydrochloride for at least two passages prior to the screen. The pooled donor HUVEC and hMSC were cultured in endothelial cell growth medium 2 (PromoCell, Heidelberg, Germany, cat. C-22011) and mesenchymal stem cell growth medium 2 (PromoCell, cat. C-28009), respectively. For all experiments, HUVEC and hMSC were used at passages </=5.
[…]

[1] = curve of first compound, second compound 0.01 µM
[2] = curve of first compound, second compound 0.0316 µM
[3] = curve of first compound, second compound 0.1 µM
[4] = curve of first compound, second compound 0.316 µM
[5] = curve of first compound, second compound 1 µM
[6] = second compound 0.01 µM, first compound 0.0316 µM
[7] = second compound 0.01 µM, first compound 0.1 µM
[8] = second compound 0.0316 µM, first compound 0.0316 µM
[9] = second compound 0.0316 µM, first compound 0.1 µM
[10] = second compound 0.1 µM, first compound 0.0316 µM
[11] = second compound 0.1 µM, first compound 0.1 µM
[12] = second compound 0.316 µM, first compound 0.0316 µM
[13] = second compound 0.316 µM, first compound 0.1 µM
[14] = second compound 1 µM, first compound 0.0316 µM
[15] = second compound 1 µM, first compound 0.1 µM
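Note: viability read after 7 days of drug exposure.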
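Throughout, for viability, T/C: 100% = DMSO vehicle control luminescence.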

CC(C)n1nc(-c2ccc3oc(N)nc3c2)c2c(N)ncnc21 + CCN1CCN(Cc2ccc(Nc3ncc(F)c(-c4cc(F)c5nc(C)n(C(C)C)c5c4)n3)nc2)CC1
6.59 nM: IC50 [5]
inactive: viability, T/C (second compound 0.01 µM, first compound 0.000316 µM) 111% | viability, T/C (second compound 0.01 µM, first compound 0.001 µM) 88.4% | viability, T/C (second compound 0.01 µM, first compound 0.00316 µM) 65.4% | viability, T/C (second compound 0.01 µM, first compound 0.01 µM) 70.2% | viability, T/C [6] 50% | viability, T/C [7] 38.6% | viability, T/C (second compound 0.0316 µM, first compound 0.000316 µM) 86.8% | viability, T/C (second compound 0.0316 µM, first compound 0.001 µM) 80.8% | viability, T/C (second compound 0.0316 µM, first compound 0.00316 µM) 73.8% | viability, T/C (second compound 0.0316 µM, first compound 0.01 µM) 52.9% | viability, T/C [8] 34.9% | viability, T/C [9] 35% | viability, T/C (second compound 0.1 µM, first compound 0.000316 µM) 65.5% | viability, T/C (second compound 0.1 µM, first compound 0.001 µM) 70.2% | viability, T/C (second compound 0.1 µM, first compound 0.00316 µM) 47.8% | viability, T/C (second compound 0.1 µM, first compound 0.01 µM) 55.6% | viability, T/C [10] 46.7% | viability, T/C [11] 29.1% | viability, T/C (second compound 0.316 µM, first compound 0.000316 µM) 66.4% | viability, T/C (second compound 0.316 µM, first compound 0.001 µM) 53.2% | viability, T/C (second compound 0.316 µM, first compound 0.00316 µM) 69.8% | viability, T/C (second compound 0.316 µM, first compound 0.01 µM) 38.5% | viability, T/C [12] 39.6% | viability, T/C [13] 36.8% | viability, T/C (second compound 1 µM, first compound 0.000316 µM) 57.1% | viability, T/C (second compound 1 µM, first compound 0.001 µM) 61.7% | viability, T/C (second compound 1 µM, first compound 0.00316 µM) 56.3% | viability, T/C (second compound 1 µM, first compound 0.01 µM) 40.9% | viability, T/C [14] 43.6% | viability, T/C [15] 27.9%
13.5 nM: IC50 [3]
6.93 nM: IC50 [4]
30.5 nM: IC50 [1]
11.6 nM: IC50 [2]

C=CCn1c(=O)c2cnc(Nc3ccc(N4CCN(C)CC4)cc3)nc2n1-c1cccc(C(C)(C)O)n1 + CCN1CCN(Cc2ccc(Nc3ncc(F)c(-c4cc(F)c5nc(C)n(C(C)C)c5c4)n3)nc2)CC1
800 nM: IC50 [1]
240 nM: IC50 [4]
359 nM: IC50 [5]
518 nM: IC50 [3]
310 nM: IC50 [2]
inactive: viability, T/C [6] 95% | viability, T/C [7] 68.1% | viability, T/C (second compound 0.01 µM, first compound 0.316 µM) 66.8% | viability, T/C (second compound 0.01 µM, first compound 1 µM) 48.4% | viability, T/C (second compound 0.01 µM, first compound 3.16 µM) 31.9% | viability, T/C (second compound 0.01 µM, first compound 10 µM) 32% | viability, T/C [8] 94.2% | viability, T/C [9] 52.9% | viability, T/C (second compound 0.0316 µM, first compound 0.316 µM) 54.9% | viability, T/C (second compound 0.0316 µM, first compound 1 µM) 48.5% | viability, T/C (second compound 0.0316 µM, first compound 3.16 µM) 36.4% | viability, T/C (second compound 0.0316 µM, first compound 10 µM) 23.8% | viability, T/C [10] 64.2% | viability, T/C [11] 50.4% | viability, T/C (second compound 0.1 µM, first compound 0.316 µM) 51.2% | viability, T/C (second compound 0.1 µM, first compound 1 µM) 51.1% | viability, T/C (second compound 0.1 µM, first compound 3.16 µM) 35% | viability, T/C (second compound 0.1 µM, first compound 10 µM) 23.8% | viability, T/C [12] 57.8% | viability, T/C [13] 52.9% | viability, T/C (second compound 0.316 µM, first compound 0.316 µM) 46.9% | viability, T/C (second compound 0.316 µM, first compound 1 µM) 45.6% | viability, T/C (second compound 0.316 µM, first compound 3.16 µM) 35.8% | viability, T/C (second compound 0.316 µM, first compound 10 µM) 27.9% | viability, T/C [14] 63.8% | viability, T/C [15] 59.8% | viability, T/C (second compound 1 µM, first compound 0.316 µM) 49.2% | viability, T/C (second compound 1 µM, first compound 1 µM) 43.9% | viability, T/C (second compound 1 µM, first compound 3.16 µM) 33.9% | viability, T/C (second compound 1 µM, first compound 10 µM) 29.4%

CC(C)n1nc(-c2ccc3oc(N)nc3c2)c2c(N)ncnc21
inactive: viability, T/C (compound 0.000316 µM) 108% and 95.6% | viability, T/C (compound 0.001 µM) 79.7% and 87.8% | viability, T/C (compound 0.00316 µM) 90.1% and 102% | viability, T/C (compound 0.01 µM) 64% and 55.8% | viability, T/C (compound 0.0316 µM) 78.1% and 50% | viability, T/C (compound 0.1 µM) 66.9% and 56.8%
> 100 nM: IC50 (curve of compound)
